As a reminder, the mass density is mass per unit of volume. Broadly, the refractive index is the speed of light in vacuum divided by its phase velocity in the sample.

Consider four compounds from the NIST ThermoML archive (doi:10.1021/je200646r).

± gives the expanded uncertainty stated by the source.

The conditions of data set [1]: 293.15 K; 101.33 kPa; Liquid; Vibrating tube method.
A short description of data set [2]: refractive index (Na D-line) (dimensionless). As to conditions: 293.15 K; 101.33 kPa; Liquid; Standard Abbe refractometry.

On to `CCCCCCCCCCCC` [dodecane], for which the mass density in data set [1] was determined as 749.6 ± 0.31 kg/m3. In addition, the refractive index in data set [2] was found to be 1.42155 ± 0.00045.

As to `CCO` [ethanol], the mass density in data set [1] is recorded as 792.05 ± 0.15 kg/m3. The refractive index in data set [2] came out at 1.36162 ± 0.0004.

`CO` [methanol]: the mass density in data set [1] stood at 791.46 ± 0.15 kg/m3. Besides, the refractive index in data set [2] was 1.32862 ± 0.0004.

For the compound `CC(C)O` [propan-2-ol], in data set [1], the mass density is listed as 785.46 ± 0.15 kg/m3. The refractive index in data set [2] came to 1.37709 ± 0.0004.
